Reference: patent US10603335B2, “Cancer treatment combination compositions, methods and uses” (Board of Supervisors of Louisiana State University and …, priority 2016, dated 2020)

Key:
[1] = test system: non-target control (NT) Panc-1 spheroides; test: 3D spheroid growth, non-target control (NT) Panc-1; format: cell-based; settings: 30 μM
Panc-1 cells spheroids = test: 3D spheroid growth (IncuCyte ZOOM), Panc-1; format: cell-based; settings: LHRH 30 μM, LHRH-curcumin 30 μM
Procedure: A protocol that enables the growth of identical size single cancer cell spheroids in Matrigel in 96 well plates has been developed.
Panc-1 and Mia-Paca-2 cells were grown in 10% FBS DMEM. Cells were collected after trypsinization and resuspended in phenol-red free DMEM with 10% FBS. Cells were labeled with CellTracker Red (Life Techmologies) for 5 minutes. After labeling cells were washed with PBS and transfer into 96-well Corning 7007 ULA round bottom plates at 1,000 cells/well in 100 μl phenol-red free media with 10% FBS and 5% Matrigel. […] Spheroids were grown at 37° C. and 5% CO2 in IncuCyte ZOOM (Essen Bioscience). Images were acquired every 4 h for a period of 120 h post-treatment and software analysis was design to identify the red object in the well. The data were expressed as fold increase in spheroids size at the end of the treatment using the “average red object area in the well” as determined by the IncuCyte software analysis. Reproducibility was confirmed in three independent experiments. Spheroids grew at a uniform rate (FIG. 1).

[2] = test system: cleaved PARP, XIAP and cIAP2 in BxPC-3 cells; test: Western blot of apoptosis markers and inhibitors of apoptosis, BxPC-3; format: cell-based; settings: for XIAP and c-IAP2 protein levels: 24 h
Procedure: (§1) Pancreatic cells were collected after trypsinization and seeded in 12-well plates for 24 h before treatments. Treatments were performed as described in the Figure legends. Following treatment, whole cell lysates were collected in Laemmli buffer and analyzed by Western blot. The following primary antibodies were used: XIAP, c-IAP2, cleaved PARP, Caspase-3 (all from Cell Signaling), actin (Santa Cruz) and LHRHR (Abcam).
(§2) Western blot analysis. Actin, GAPDH and Ponceau staining were used as loading controls. Gemcitabine was diluted in water. Curcumin and LHRH-curcumin were diluted in DMSO. Cells were treated as follows:
(§3) Western blot analysis. Actin, GAPDH and Ponceau staining were used as loading controls. Gemcitabine was diluted in water. Curcumin and LHRH-curcumin were diluted in DMSO.

[3] = test system: cleaved PARP, XIAP and cIAP2 in Panc-1 cells; test: Western blot of apoptosis markers and inhibitors of apoptosis, Panc-1; format: cell-based; settings: for XIAP and c-IAP2 protein levels: 24 h
Procedure: as §1, §2
(§4) Western blot analysis. Actin, GAPDH and Ponceau staining were used as loading controls. Gemcitabine was diluted in water. Curcumin and LHRH-curcumin were diluted in DMSO. The cells were treated as follows:
(§5) Western blot analysis. Actin was used as loading control. Both gemcitabine and LHRH-curcumin were diluted in water.

[4] = test system: cleaved PARP, XIAP and cIAP2 in MiaPaca-2 cells; test: Western blot of apoptosis markers and inhibitors of apoptosis, MiaPaca-2; format: cell-based, human; settings: for XIAP and c-IAP2 protein levels: 24 h
Procedure: as §1, §2, §4, §5

[5] = test system: XIAP, cIAP1 and cIAP2 mRNA in Panc-1 cells; test: Quantitative PCR of inhibitors of apoptosis, Panc-1; format: cell-based; settings: 50 uM, 24 h post-treatment, relative to DMSO, GAPDH reference
Procedure: mRNA levels of XIAP, c-IAP1 and c-IAP2 were determined by quantitative real-time PCR using the SYBR Green Real-Time PCR Master Mix form ThermoFisher. Thermal cycling was carried out using the CFX system from BioRad under the following conditions: 95° C. for 10 min and 40 cycles at 95° C. for 15 s and 55° C. for 60 s. mRNA expression for any given gene is represented as comparative to the DMSO-treated cells. GAPDH was used as the housekeeping gene of reference.
GAPDH was used as a reference. Results presented in FIG. 12A (XIAP relative mRNA levels), FIG. 12B (cIAP1 relative mRNA levels), FIG. 12C (cIAP2 relative mRNA levels).

[6] = test system: cleaved PARP, XIAP and cIAP2 in AsPC-1 cells; test: Western blot of apoptosis markers and inhibitors of apoptosis, AsPC-1; format: cell-based; settings: for XIAP and c-IAP2 protein levels: 24 h
Procedure: as §1, §2, §3

[7] = 50 uM in the presence of gemcitabine (5 uM)
[8] = curcumin, LHRH-curcumin 50 uM and 100 uM alone, gemcitabine alone
[9] = 24 h post-treatment, curcumin, LHRH-curcumin 10-100 uM, gemcitabine 1-20 uM

Compound | spheroids growth [1] | spheroids growth (Panc-1 cells spheroids) | XIAP and c-IAP2 protein levels [2, 7] | XIAP and c-IAP2 protein levels [2, 8] | apoptosis marker cleaved PARP [2, 9] | XIAP and c-IAP2 protein levels [3, 7] | XIAP and c-IAP2 protein levels [3, 8] | apoptosis marker cleaved PARP [3, 9] | XIAP and c-IAP2 protein levels [4, 7] | XIAP and c-IAP2 protein levels [4, 8] | apoptosis marker cleaved PARP [4, 9] | mRNA levels of XIAP, cIAP1 and c-IAP2 [5] | XIAP and c-IAP2 protein levels [6, 7] | XIAP and c-IAP2 protein levels [6, 8] | apoptosis marker cleaved PARP [6, 9]
luteinizing hormone releasing hormone (EHWSYGLRPG) [LHRH, Gonadotropin-releasing hormone (GnRH, also called luteinizing hormone releasing hormone or LHRH), reference compound] | inhibitory effect on NT Panc-1 spheroids growth | inhibitory effect on spheroids growth |  |  |  |  |  |  |  |  |  |  |  |  | 
COc1cc(/C=C/C(=O)CC(=O)/C=C/c2ccc(O)c(OC)c2)ccc1O [curcumin] |  |  | down-regulated | down-regulated | initiate apoptosis as illustrated by the presence of cleaved PARP | down-regulated | down-regulated | initiate apoptosis as illustrated by the presence of cleaved PARP | down-regulated | down-regulated | initiate apoptosis as illustrated by the presence of cleaved PARP | down-regulated | down-regulated | down-regulated | initiate apoptosis as illustrated by the presence of cleaved PARP
